Results taken from PubChem BioAssay AID328 (DTP/NCI, 2004).
“And” between values parts separate entries of the source, which are not always exact repeats. Identical values can stand only once. Toxic doses and inconclusive results are not listed. The calls were made as follows: active = survival T/C of 150% or more; inactive = T/C below 125% in these data.

Tested on: BDF1 mice, P388 leukemia ip, median survival T/C
Experiment: NCI In Vivo Anticancer Drug Screen. Data for tumor model P388 Leukemia (intraperitoneal) in B6D2F1 (BDF1) mice
Conditions: endpoint: median survival time, higher = longer survival
Outline: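 T/C = treated-group survival ÷ vehicle-control survival; tumour transplanted into mice before dosing.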

[1] = dose: 25.0 mg/kg/injection, schedule: Q01DX009 (ip), vehicle: saline with Tween-80
[2] = dose: 50.0 mg/kg/injection, schedule: Q01DX009 (ip), vehicle: saline with Tween-80
[3] = dose: 100.0 mg/kg/injection, schedule: Q01DX009 (ip), vehicle: saline with Tween-80
[4] = dose: 200.0 mg/kg/injection, schedule: Q01DX009 (ip), vehicle: saline with Tween-80
[5] = dose: 50.0 mg/kg/injection, schedule: Q01DX009 (ip), vehicle: saline
[6] = dose: 50.0 mg/kg/injection, schedule: Q04DX003 (ip), vehicle: saline
[7] = dose: 100.0 mg/kg/injection, schedule: Q01DX009 (ip), vehicle: saline
[8] = dose: 100.0 mg/kg/injection, schedule: Q04DX003 (ip), vehicle: saline
[9] = dose: 200.0 mg/kg/injection, schedule: Q01DX009 (ip), vehicle: saline
[10] = dose: 200.0 mg/kg/injection, schedule: Q04DX003 (ip), vehicle: saline
[11] = dose: 100.0 mg/kg/injection, schedule: Q04DX003 (ip), vehicle: saline with Tween-80
[12] = dose: 200.0 mg/kg/injection, schedule: Q04DX003 (ip), vehicle: saline with Tween-80
[13] = dose: 400.0 mg/kg/injection, schedule: Q01DX009 (ip), vehicle: saline with Tween-80
[14] = dose: 400.0 mg/kg/injection, schedule: Q04DX003 (ip), vehicle: saline with Tween-80
[15] = dose: 400.0 mg/kg/injection, schedule: Q01DX009 (ip), vehicle: saline
[16] = dose: 100.0 mg/kg/injection, schedule: Q04DX003 (ip), vehicle: Klucel (hydroxypropylcellulose) (HPC)
[17] = dose: 200.0 mg/kg/injection, schedule: Q04DX003 (ip), vehicle: Klucel (hydroxypropylcellulose) (HPC)
[18] = dose: 12.5 mg/kg/injection, schedule: Q01DX009 (ip), vehicle: Klucel (hydroxypropylcellulose) (HPC)
[19] = dose: 25.0 mg/kg/injection, schedule: Q01DX009 (ip), vehicle: Klucel (hydroxypropylcellulose) (HPC)
[20] = dose: 50.0 mg/kg/injection, schedule: Q01DX009 (ip), vehicle: Klucel (hydroxypropylcellulose) (HPC)
[21] = dose: 100.0 mg/kg/injection, schedule: Q01DX009 (ip), vehicle: Klucel (hydroxypropylcellulose) (HPC)

Measured: T/C

c1ccc(C(Nc2nccs2)Nc2nccs2)cc1
inactive: dose: 12.5 mg/kg/injection, schedule: Q01DX009 (ip), vehicle: saline with Tween-80 112 % of control | [1] 108 % of control | [2] 96 % of control and 108 % of control

Oc1c(O)c(Cl)c(Cl)c(Cl)c1Cl
inactive: dose: 12.5 mg/kg/injection, schedule: Q01DX009 (ip), vehicle: saline sonified 95 % of control | dose: 12.5 mg/kg/injection, schedule: Q04DX003 (ip), vehicle: saline sonified 100 % of control | dose: 25.0 mg/kg/injection, schedule: Q01DX009 (ip), vehicle: saline sonified 108 % of control | dose: 25.0 mg/kg/injection, schedule: Q04DX003 (ip), vehicle: saline sonified 100 % of control | dose: 50.0 mg/kg/injection, schedule: Q01DX009 (ip), vehicle: saline sonified 116 % of control | dose: 50.0 mg/kg/injection, schedule: Q04DX003 (ip), vehicle: saline sonified 100 % of control

CNCc1c2c(O)c3c(O)c(C)c4c(c3c1O)C(=O)C(C)(O/C=C/C(OC)C(C)C(OC(C)=O)C(C)C(O)C(C)C(O)C(C)/C=C/C=C(/C)C(=O)N2)O4 (configuration not stated)
inactive: [2] 100 % of control | [3] 89 % of control | [4] 116 % of control

Cc1cc(N(C)C)c2ccc3c(ccc4c(N(C)C)cc(C)nc43)c2n1
inactive: [2] 121 % of control | [3] 123 % of control

CCOP(=O)(OCC)OCCCN(CC)CC
inactive: dose: 25.0 mg/kg/injection, schedule: Q01DX009 (ip), vehicle: saline 118 % of control | [5] 114 % of control | [6] 100 % of control | [7] 100 % of control | [8] 107 % of control | [9] 89 % of control | [10] 110 % of control | dose: 300.0 mg/kg/injection, schedule: Q04DX003 (ip), vehicle: saline 105 % of control

CC(=O)C[n+]1ccccc1C(c1ccccc1)c1ccccc1
inactive: dose: 12.5 mg/kg/injection, schedule: Q01DX005 (ip), vehicle: saline 101 % of control | dose: 25.0 mg/kg/injection, schedule: Q01DX005 (ip), vehicle: saline 92 % of control | dose: 50.0 mg/kg/injection, schedule: Q01DX005 (ip), vehicle: saline 101 % of control

CC(C(=O)O)[Se](=O)O (configuration not stated)
inactive: dose: 12.5 mg/kg/injection, schedule: Q04DX003 (ip), vehicle: saline 101 % of control | dose: 25.0 mg/kg/injection, schedule: Q04DX003 (ip), vehicle: saline 101 % of control | [6] 100 % of control

CCOC(=O)CCN(CC(=O)OCC)C(C)C
inactive: [3] 104 % of control | [11] 95 % of control | [4] 104 % of control | [12] 104 % of control | [13] 109 % of control | [14] 95 % of control

COC(=O)/C(C#N)=C(\C)CCC=C(C)C
inactive: dose: 25.0 mg/kg/injection, schedule: Q04DX003 (ip), vehicle: saline with Tween-80 95 % of control | dose: 50.0 mg/kg/injection, schedule: Q04DX003 (ip), vehicle: saline with Tween-80 105 % of control | [11] 87 % of control

CC(=O)Oc1ccc2c(c1)C(=O)C(Br)C1C2CCC2(C)C(OC(C)=O)CCC12 (configuration not stated)
inactive: dose: 50.0 mg/kg/injection, schedule: Q01DX010 (sc), vehicle: steriod suspending solution 95 % of control | dose: 400.0 mg/kg/injection, schedule: Q01DX010 (sc), vehicle: steriod suspending solution 90 % of control

CC(=O)Nc1ccn(CC(=O)c2cccs2)c(=O)n1
inactive: [7] 90 % of control | [8] 86 % of control | [9] 95 % of control | [10] 86 % of control | [15] 90 % of control | dose: 400.0 mg/kg/injection, schedule: Q04DX003 (ip), vehicle: saline 100 % of control

C=CCCc1cc(OC)ccc1C(=O)C(C)C
inactive: [2] 112 % of control | [4] 119 % of control

C=CCc1ccccc1C=O
inactive: [11] 97 % of control | [12] 95 % of control | [14] 97 % of control

CCCCNc1nc(N)nc(Nc2ccc(Br)cc2)c1N=O
inactive: [1] 90 % of control | [2] 90 % of control | dose: 100.0 mg/kg/injection, schedule: Q01DX001 (ip), vehicle: Klucel (hydroxypropylcellulose) (HPC) 100 % of control | [3] 90 % of control and 91 % of control | [16] 120 % of control | [11] 86 % of control | dose: 132.0 mg/kg/injection, schedule: Q04DX003 (ip), vehicle: Klucel (hydroxypropylcellulose) (HPC) 100 % of control and 109 % of control | dose: 200.0 mg/kg/injection, schedule: Q01DX001 (ip), vehicle: Klucel (hydroxypropylcellulose) (HPC) 91 % of control | [17] 104 % of control | [12] 104 % of control | dose: 300.0 mg/kg/injection, schedule: Q04DX003 (ip), vehicle: Klucel (hydroxypropylcellulose) (HPC) 90 % of control and 113 % of control | dose: 400.0 mg/kg/injection, schedule: Q01DX001 (ip), vehicle: Klucel (hydroxypropylcellulose) (HPC) 91 % of control | [14] 100 % of control

O=C1C[C@H]2[C@H](CO)[C@@H](OC(=O)c3ccc(-c4ccccc4)cc3)C[C@H]2O1
inactive: [18] 105 % of control | [19] 115 % of control | [20] 105 % of control | dose: 75.0 mg/kg/injection, schedule: Q01DX009 (ip), vehicle: saline with Tween-80 120 % of control

O=[N+]([O-])c1ccc(Cc2ccncc2)cc1
inactive: dose: 37.5 mg/kg/injection, schedule: Q01DX009 (ip), vehicle: saline sonified 100 % of control | dose: 75.0 mg/kg/injection, schedule: Q01DX009 (ip), vehicle: saline sonified 95 % of control | dose: 150.0 mg/kg/injection, schedule: Q01DX009 (ip), vehicle: saline sonified 95 % of control

CC12CCC3C(CCC4=CC(=O)CCC43C)C1CCC(=O)O2 (configuration not stated)
inactive: [18] 95 % of control | [19] 95 % of control | [20] 104 % of control | [21] 95 % of control | [16] 109 % of control | [17] 90 % of control | dose: 400.0 mg/kg/injection, schedule: Q04DX003 (ip), vehicle: Klucel (hydroxypropylcellulose) (HPC) 90 % of control

S=C(Nc1ccccn1)Nc1ccccn1
inactive: [19] 99 % of control and 106 % of control | [20] 99 % of control and 118 % of control | [21] 89 % of control and 116 % of control | dose: 200.0 mg/kg/injection, schedule: Q01DX009 (ip), vehicle: Klucel (hydroxypropylcellulose) (HPC) 98 % of control

CC(C)(C)[Si](C)(C)OC(=O)Nc1ccc(N(CCCl)CCCl)cc1
inactive: dose: 0.05 mg/kg/injection, schedule: Q01DX009 (ip), vehicle: saline with Tween-80 104 % of control | dose: 0.07 mg/kg/injection, schedule: Q01DX009 (ip), vehicle: saline with Tween-80 114 % of control | dose: 0.11 mg/kg/injection, schedule: Q01DX009 (ip), vehicle: saline with Tween-80 117 % of control | dose: 0.16 mg/kg/injection, schedule: Q01DX009 (ip), vehicle: saline with Tween-80 108 % of control | dose: 0.32 mg/kg/injection, schedule: Q01DX009 (ip), vehicle: saline with Tween-80 107 % of control

O=C1CC(c2ccc([N+](=O)[O-])cc2)=Nc2ccccc2N1
inactive: [11] 109 % of control | [12] 104 % of control | [14] 114 % of control

COc1ccc2c(c1)C1(C)CCN(C)CC(C1)C2O (configuration not stated)
inactive: [5] 96 % of control | [7] 89 % of control | [9] 92 % of control

Cc1ccc(S(=O)(=O)Oc2cc(C)ccc2C)cc1
inactive: dose: 25.0 mg/kg/injection, schedule: Q04DX003 (ip), vehicle: Klucel (hydroxypropylcellulose) (HPC) 105 % of control | dose: 50.0 mg/kg/injection, schedule: Q04DX003 (ip), vehicle: Klucel (hydroxypropylcellulose) (HPC) 95 % of control | [3] 114 % of control | [16] 105 % of control | [4] 109 % of control | [13] 114 % of control

CC1C(=O)COCC1=O
inactive: dose: 100.0 mg/kg/injection, schedule: Q01DX001 (ip), vehicle: saline with Tween-80 102 % of control | dose: 200.0 mg/kg/injection, schedule: Q01DX001 (ip), vehicle: saline with Tween-80 101 % of control | dose: 400.0 mg/kg/injection, schedule: Q01DX001 (ip), vehicle: saline with Tween-80 98 % of control

Cn1nc(NC(=O)C(F)(F)F)c2nccnc21
inactive: [11] 100 % of control | [12] 100 % of control | [14] 100 % of control

c1ccc(CSC2=NCCS2)cc1
inactive: [7] 113 % of control | [9] 104 % of control | [15] 113 % of control
